These results are taken from US12692274B2, “Tetrahydroisoquinoline derivatives for the treatment of red blood disorders and inflammatory diseases” (Sanofi, priority 2020, dated 2026).

The conditions of series [1]: the molecule shown is the open-chain precursor, rcm bond.
In series [2] the test system is genes of interest (GOI) in HUDEP cells. As to the kind of experiment: Gene expression by qPCR in HUDEP cells treated with compound titration. To be noted: HbG, read-out: HUDEP HbG EC50 (μM) (Num). In kind it is cell-based. The procedure:
Evaluation of the gene expression by qPCR in HUDEP cells treated with titration of novel compounds. HUDEP Compound Treatment Method
HUDEP cells were plated in 96-well plates, @ 25,000 cells per well in 200 μL of maintenance media. Compounds were added in a 10-point dose response starting at 10 uM with 1/3 dilution scheme using the HP digital diluter. A DMSO control was run to all for normalization of DMSO. The compounds were incubated for 48 hours in 37° C. incubator with 5% CO2. Post incubation, total RNA was isolated using Cells to Ct kit and gene expression was evaluated for genes of interest (GOI) after normalizing to a housekeeping gene. The ΔΔCT was calculated and compared to the DMSO control.
Cell Lysis, Isolation and Gene Expression Materials
Cells to Ct is a kit offered by Applied Biosystems. mRNA prepared using this kit can be directly used for cDNA conversion followed subsequently with qPCR for gene expression analysis
Cell lysis and preparation of RNA: For suspension cells such as HUDEPs, 10,000-100,000 cells (as per kit guidelines) were used for making lysates. The plate was centrifuged at 1500 rpm for 5 mins and the cells were pelleted. Spent medium was removed using a multi-channel pipette. 200 μL ice-cold PBS was added to all treated wells, followed by centrifuging at 1500 rpm for 5 mins 195 μL cold PBS were aspirated from all treatment wells without disturbing the cell monolayer.
To prepare the Cells to CT lysis solution, 49.5 μL of the Cells to CT Lysis Buffer and 0.5 μL/well DNase I (returned DNase I reagent to the −20 C freezer immediately after pipetting) were added to each well. The Cells to CT lysis solution was pipetted to a reservoir and 50 μL were added per well to the treated wells. (Mix 35 μL 5 times without creating bubbles and set timer to 5 mins. At the end of the 5-minute incubation, add 5 μL of stop solution with a multichannel pipet touching the tip to the liquid. Then mix 35 μL 5 times without creating bubbles and set timer to 2 mins.)
The plates were sealed and stored at −20° C. until cDNA synthesis. Optionally they were placed on ice to allow for directly moving to the cDNA synthesis.
cDNA Synthesis: The cell lysate plates were thawed on ice if necessary and mixed 4 times with a multi-channel pipette. 4 μL of Superscript IV VILO and 6 μL of Nuclease free water were combined together for each sample. The mixture was poured into a reservoir and 10 μL was pipetted into each well of a 96-well PCR plate. 10 μL of lysate prepared previously was added and mixed 5 times. The wells were completely sealed, especially around the edges, with plate sealing film using the plate sealing paddle. The PCR plate was centrifuged to pull down the sample to the bottom of the wells. The lysate plate was sealed and returned to the −20° C. freezer as soon as possible. The PCR plate was placed in the thermal cycler and run at 20 μL at 25° C. for 10 minutes, 50° C. for 10 minutes, 85° C. for 5 minutes and then 4° C.
Real Time PCR: The cDNA plate was thawed at room temperature when necessary and 30 μL nuclease free water was added to each cell lysate, followed by mixing, up and down 4 times with a pipette. The primers were thawed for the genes of interest—both housekeeping gene (HKG) and gene(s) of interest (GOI).
A template was prepared and the number of wells needed for each gene of interest (GOI) calculated. Each sample required 2 μL of cDNA, 5 μL of Taqman Master Mix, 0.16667 μL of GOI at 60 times concentration, 0.16667 μL of HKG at 60 times concentration and 2.6667 μL of nuclease free water. If genes at 20 times concentration were used, then 2 μL cDNA, 5 μL Taqman Master Mix, 0.5 GOI, 0.5 μL HKG and 2 μL of nuclease free water were combined for each well.
After calculating the number of wells for each gene, GOI, HKG, Taqman Master Mix and Nuclease free water were combined. 8 μL were pipetted in to each well of the 384-well PCR plate as detailed in the template. […]

Series [3] relates to NQO1 activation in BEAS-2B cells. As to the kind of experiment: BEAS-2B cellular MTT assay of NQO1 activation, 0% HSA. Type of series: cell-based. In short, it runs like this: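 For the 0% HSA condition, cells were seeded into collagen plates in HSA-free medium. Culture was BEAS-2B in BEBM plus BEGM SingleQuots lacking GA-1000, held under 70% confluence, at a seeding density reaching 95-100% confluence by 48 h.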
On the technique in general: Tetrazolium assays rely on reduction of a dye to a coloured formazan, in cell work by metabolically active cells.

For series [4] the test system is unchanged. As to the kind of experiment: BEAS-2B cellular MTT assay of NQO1 activation, 0.3% HSA. In kind it is cell-based. In short, it runs like this: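 MTT read-out in BEAS-2B cells grown in BEBM with SingleQuots, no GA-1000, kept below 70% confluence; plates coated with collagen, with 0.3% or 0% HSA medium, seeded to 95-100% confluency at 48 h, 37 °C, 5% CO2.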

Series [5] concerns the target HIS-Keap1 full length / Biotin-Nrf2 (16-mer) (Homo sapiens, UniProt Q14145). As to the kind of experiment: biochemical.
The conditions of series [6]: the molecule shown is the open-chain precursor.
Setting [7] is: Homo sapiens, serum free, read-out: BEAS EC50 (nM) serum free.
The mark [8] stands for this setting: serum free, read-out: BEAS EC50 (nM) serum free.
[9] abbreviates: Homo sapiens, BEAS+, read-out: BEAS+ EC50.
[10] abbreviates: BEAS+ W, read-out: BEAS+ W EC50.
The mark [11] stands for this setting: Homo sapiens, BEAS+ W, read-out: BEAS+ W EC50.

Values joined by “and” are separate entries in the source; they are usually repeats but may differ in a detail not shown here. Equal values may be shown once. Read-outs that look alike come from different tables or passages of the source.

HIS-Keap1 full length / Biotin-Nrf2 (16-mer), sequence (Q14145 whole entry): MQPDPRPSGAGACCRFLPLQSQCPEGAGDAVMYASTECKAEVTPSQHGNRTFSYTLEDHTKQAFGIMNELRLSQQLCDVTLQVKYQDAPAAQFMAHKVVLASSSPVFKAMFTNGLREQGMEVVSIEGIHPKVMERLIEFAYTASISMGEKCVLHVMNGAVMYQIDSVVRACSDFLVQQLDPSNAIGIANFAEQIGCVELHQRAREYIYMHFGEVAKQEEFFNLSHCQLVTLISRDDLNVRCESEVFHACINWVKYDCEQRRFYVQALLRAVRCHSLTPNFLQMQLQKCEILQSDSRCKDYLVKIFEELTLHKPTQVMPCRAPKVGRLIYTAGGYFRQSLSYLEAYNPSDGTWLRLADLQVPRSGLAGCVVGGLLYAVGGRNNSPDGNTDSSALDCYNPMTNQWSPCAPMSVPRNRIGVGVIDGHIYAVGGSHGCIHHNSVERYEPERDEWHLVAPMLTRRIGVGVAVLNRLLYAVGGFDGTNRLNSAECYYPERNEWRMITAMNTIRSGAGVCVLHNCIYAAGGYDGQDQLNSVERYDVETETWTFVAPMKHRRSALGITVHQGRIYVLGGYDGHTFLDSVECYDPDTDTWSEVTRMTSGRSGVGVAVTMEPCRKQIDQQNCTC

“amide of benzyl 3-(6-(pent-4-en-1-yloxy)pyridin-3-yl)-3-(1,2,3,4-tetrahydroisoquinolin-7-yl)propanoate with 1-methyl-5-vinyl-1H-pyrrolo[2,3-b]pyridine-2-carboxylic acid” gave a ring closure, crude yield in series [1] (22-membered ring, Grubbs catalyst (General procedure 15)) of 51%.

`COC(=O)C[C@H]1c2ccc3c(c2)CN(CC3)C(=O)c2ccc(cc2)CC=CCCCn2nnc3c(C)c1ccc32` had a ring closure, yield of all isomers (from C=CCCCn1nnc2c(C)c([C@@H](CC(=O)OC)c3ccc4c(c3)CN(C(=O)c3ccc(CC=C)cc3)CC4)ccc21, rcm bond, Grubbs catalyst) of 99%.

With `COC(=O)CC1c2ccc3c(c2)CN(CC3)C(=O)c2ccc(cc2)C=CCCCOc2cc(C)c1cn2` (stereo not shown), the ring closure, yield of all isomers (from C=CCCCOc1cc(C)c(C(CC(=O)OC)c2ccc3c(c2)CN(C(=O)c2ccc(C=C)cc2)CC3)cn1, rcm bond, Grubbs catalyst) was found to be 64%.

Broadly, the EC50 is the concentration at which the effect is half-maximal. With `Cc1cc2ccc1C(=O)N1CCc3ccc(cc3C1)[C@@H](CC(=O)O)c1ccc3c(nnn3CCCCCC2)c1C` [Compound 240], the EC50 is 0.018 µM in series [2]; 1.1 nM in series [3] (setting [7]); 0.6 nM in series [3] (setting [8]); 0.6 nM in series [4] (BEAS+, read-out: BEAS+ EC50); 1 nM in series [4] (setting [9]).

Compound `COC(=O)C[C@@H]1c2ccc3c(c2)CN(CC3)C(=O)c2ccc(cc2)C=CCCCCn2cnc3c(C)c1ccc32` displayed a ring closure, yield of all isomers (from C=CCCCCn1cnc2c(C)c([C@H](CC(=O)OC)c3ccc4c(c3)CN(C(=O)c3ccc(C=C)cc3)CC4)ccc21, rcm bond, Grubbs 2nd generation catalyst, 48.0 h) of 27%.

In turn, “amide of 7-(3-methoxy-3-oxo-1-(2-(pent-4-en-1-yloxy)pyrimidin-5-yl)propyl)-1,2,3,4-tetrahydroisoquinolin-2-ium chloride with 4-vinylbenzoic acid” returned a ring closure, crude yield in series [1] (21-membered ring, Grubbs catalyst (General procedure 15)) of 20%.

A word on the IC50: it is the midpoint of a concentration-inhibition curve. Low values mean higher potency, high ones lower potency. `O=C(O)CC1c2ccc3c(c2)CN(CC3)C(=O)c2c(F)cc(cc2F)CCCCCn2nnc3cc1ccc32` (stereo not shown) [Compound 241]: in series [2], the EC50 was 0.095 µM. In series [5], this compound yielded a half-inhibitory concentration (IC50) of 0.4 nM.

As for `Cc1c2ccc3c1nnn3CCCCCCOc1ccc(cc1)C(=O)N1CCc3ccc(cc3C1)[C@@H]2[C@@H](C)C(=O)O` [Compound 107], the EC50 in series [2] worked out at 0.038 µM; in series [3] (Homo sapiens, Serum Free W, read-out: BEAS EC50 (nM) Serum Free W) it was 3.6 nM; in series [3] (setting [7]) it was 0.6 nM; in series [3] (Serum Free W, read-out: BEAS EC50 (nM) Serum Free W), 4.1 nM; in series [3] (setting [8]), 0.4 nM; in series [4] (setting [10]) it was 32.7 nM. The 50% effective concentration (EC50) in series [4] (BEAS+, read-out: BEAS+ EC50) worked out at 2.4 nM; in series [4] (setting [11]), 16.7 nM; in series [4] (setting [9]), 3.2 nM. Also, the IC50 in series [5] worked out at 1.6 nM.

Consider `Cc1c2ccc3c1nnn3CCCCCCc1ccc(cc1)C(=O)N1CCc3ccc(cc3C1)[C@H]2[C@@H](C)C(=O)O` [Compound 129], for which the EC50 is 0.013 µM in series [2]; 1360 nM in series [3] (setting [7]); 1220 nM in series [3] (setting [8]); 2.2 nM and 1.6 nM and 1.9 nM in series [4] (setting [10]); 3080 nM in series [4] (BEAS+, read-out: BEAS+ EC50); 2 nM in series [4] (setting [11]). Moreover, the concentration for a half-maximal effect (EC50) in series [4] (setting [9]) is 2190 nM.

Regarding “amide of rel-methyl (R)-3-(1-(hex-5-en-1-yl)-4-methyl-1H-benzo[d]imidazol-5-yl)-3-(1,2,3,4-tetrahydroisoquinolin-7-yl)propanoate with 4-vinylbenzoic acid”, the ring closure, isolated yield in series [6] (rcm bond, 22-membered ring, Grubbs II (extra portion)) worked out at 27%.

Consider `O=C(O)CC1c2ccc3c(c2)CN(CC3)C(=O)c2ccc(c3ccccc23)OCCCCCCn2nnc3cc1ccc32` (stereo not shown) [Compound 338], for which the 50% effective concentration (EC50) in series [2] is 0.667 µM; in series [3] (setting [7]), 25.3 nM; in series [4] (setting [9]) it was 27.5 nM. Further, the IC50 in series [5] is 0.2 nM and 0.1 nM.

The compound “free amino acid (NH tetrahydroisoquinoline, CO2H benzoic acid) from deprotection of Mitsunobu di-ether of tert-butyl 7-(3-(benzyloxy)-1-(1-(3-(2-hydroxyethoxy)propyl)-4-methyl-1H-benzo[d][1,2,3]triazol-5-yl)-3-oxopropyl)-3,4-dihydroisoquinoline-2(1H)-carboxylate with tert-butyl 2,6-difluoro-4-hydroxybenzoate” yielded a ring closure, isolated yield in series [6] (amide bond, 23-membered ring, HATU/Et3N) of 30%.

“amide of methyl 3-(1-(but-3-en-1-yl)-4-methyl-1H-benzo[d][1,2,3]triazol-5-yl)-3-(1,2,3,4-tetrahydroisoquinolin-7-yl)propanoate with 5-(but-3-en-1-yloxy)pyrazine-2-carboxylic acid” displayed a ring closure, crude yield in series [1] (23-membered ring, Grubbs catalyst (General procedure 7)) of 42%.

As for `Cc1c2ccc3c1nnn3CCCCCCc1ccc(cc1)C(=O)N1CCc3ccc(cc3C1)[C@@H]2CC(=O)O` (single isomer, unassigned) [Compound 223], in series [2], the EC50 was 0.015 µM. In series [5], the IC50 is 0.5 nM and 0.9 nM and 1.2 nM (2×).

Consider “amide of methyl 3-(1-(but-3-en-1-yl)-1H-benzo[d][1,2,3]triazol-5-yl)-3-(1,2,3,4-tetrahydroisoquinolin-7-yl)propanoate with 4-(allyloxy)benzoic acid”, for which the ring closure, isolated yield in series [6] (rcm bond, 22-membered ring, Grubbs catalyst (General procedure 7)) stood at 47%.

In series [6] (rcm bond, 21-membered ring, Grubbs catalyst (General procedure 15)), “amide of methyl 3-(4-methyl-6-(pent-4-en-1-yloxy)pyridin-3-yl)-3-(1,2,3,4-tetrahydroisoquinolin-7-yl)propanoate with 4-vinylbenzoic acid” came in with a ring closure, isolated yield of 64%.

Take `O=C(O)CC1c2ccc(nc2)OCCCCOc2ccc(cc2)C(=O)N2CCc3ccc1cc3C2` (stereo not shown) [Compound 211, 2-(4-oxo-31,32,33,34-tetrahydro-6,11-dioxa-3(7,2)-isoquinolina-1(5,2)-pyridina-5(1,4)-benzenacycloundecaphane-2-yl)acetic Acid]: where the note is “from COC(=O)CC(c1ccc(OCCCCOc2ccc(C(=O)OC(C)(C)C)cc2)nc1)c1ccc2c(c1)CN(C(=O)OC(C)(C)C)CC2, amide bond, 3 steps”, the ring closure, yield of all isomers was found to be 7.8%. Moreover, the concentration giving a half-maximal response (EC50) was 829 nM in series [3] (setting [7]); 574 nM in series [3] (setting [8]); 1730 nM in series [4] (BEAS+, read-out: BEAS+ EC50); 2210 nM in series [4] (setting [9]). For the same compound, in series [5], the half-inhibitory concentration (IC50) was 10.7 nM and 24.5 nM.
